The record followed here is patent publication EP4702986A1, “POLYPEPTIDE AND USE THEREOF” (Biocells (Beijing) Biotech Co., Ltd., priority 2023, dated 2024).

The subject of data set [1] is male SD rats. Description: in vivo. The following applies: intravenous (tail vein) 240 µg/Kg; one animal per row; observed 24 hours. The protocol:
In an experiment about acute toxicity of intravenous administration, male SD rats weighing 200-230 g were dosed in a range between 480 µg/Kg and 30 µg/Kg via tail vein injection in a descending order of dosage. […] Toxic response and mortality of the rats were preliminarily observed, and time of death and doses without mortality of the rats were recorded. The level of acute toxicity of the polypeptides was preliminarily determined based on the doses without mortality.

The target in data set [2] is T1, human ETA receptor (Homo sapiens, UniProt P25101).
T1 construct: expressed in transfected cells; host or cells: 293T-17 cells, transient transfection
T1 sequence (P25101 21-427): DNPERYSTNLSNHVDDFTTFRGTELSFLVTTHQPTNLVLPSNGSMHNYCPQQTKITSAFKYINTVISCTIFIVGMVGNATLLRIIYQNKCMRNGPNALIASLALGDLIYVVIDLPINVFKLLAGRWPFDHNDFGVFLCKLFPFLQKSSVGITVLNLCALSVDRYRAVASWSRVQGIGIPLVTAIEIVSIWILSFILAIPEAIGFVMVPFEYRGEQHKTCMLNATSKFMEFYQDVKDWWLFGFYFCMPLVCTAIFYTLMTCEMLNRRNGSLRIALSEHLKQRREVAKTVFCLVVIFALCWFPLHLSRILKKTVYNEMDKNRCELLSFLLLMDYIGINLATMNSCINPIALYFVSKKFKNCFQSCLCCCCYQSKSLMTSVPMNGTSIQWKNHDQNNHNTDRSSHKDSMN
Description: Selectivity of polypeptides on human ETA receptor (IP-One Gq kit, % of positive control ET1). The format is cell-based. The following applies: read-out: hETAR agonist activity, percentage of activity relative to ET1. The protocol: 293T-17 cells were seeded at a density of 650,000 cells per well in a 6-well plate and cultured overnight in an incubator at 37°C and 5% CO2. Afterward, the cells were transfected with an expression vector, PCDNA3.1-hETA which contained a human ETA receptor gene, at a plasmid concentration of 2.5 µg per well. The cells were further cultured for 48 hours, and green fluorescence expression was observed under a fluorescence microscope. The cells were then digested with trypsin and counted. The activity of compounds on the human ETA receptor was determined with the IP-One Gq kit from Cisbio Bioassays. The cells were suspended in Stim Buffer provided in the kit and the cell suspension was added to a 96-well detection plate at 7 µL cell suspension (containing 30,000 cells) per well. The polypeptides to be screened for activity (prepared according to the Preparation Example of the invention) and polypeptide human endothelin ET1 as positive control were dissolved in Stim B to be at a concentration of 2×, and 7 µL was added to the test cells, while 7 µL of PBS solution was added to the cells in the negative control wells. Human endothelin ET1 (ET1: […] (C1-C15,C3-C11)) set forth in SEQ ID No. 85 was used as the positive control polypeptide. The plate was sealed and incubated at 37°C for 1 h in a cell culture incubator. Detection wells, positive control wells, and PBS control wells were each added with 3 µL of IP1 d2 working solution and 3 µL of IP1 Tb cryptotate Antibody working solution. The plate was sealed and incubated in the dark at room temperature (25°C±5°C) for 1 h. The plate seal was removed, and the […] at 665 nm and 620 nm was measured with an ID5 microplate reader. The ratio of the acceptor emission signal to the donor emission signal, i.e., the value of (signal at 665 nm/signal at 620 nm)×10^4, was calculated for each well. With F3 representing the average value of values of signal at 665 nm/signal at 620 nm determined for the test sample at a specific concentration, F5 representing the average value of values of signal at 665 nm/signal at 620 nm determined for the positive control human endothelin ET1 at the same concentration, and T3 representing the average value of values of signal at 665 nm/signal at 620 nm determined for the PBS negative control, the percentage of activity of the test polypeptide sample relative to the positive control sample ET1 = (F3-T3)×100/(F5-T3) (see Table 6). hETA sequence (NCBI accession number L06622.1).

Data set [3] in a line: Determination of half-lives of polypeptides (plasma, LC-MS). As to conditions: for half-life: C57 BL/6, mouse, plasma, iv; for AUClast 0-30 min: C57 BL/6 mice, dosage per compound 0.48, 0.96 or 1 mpk; for AUClast 0-30 min / T1/2: i.v.; for T1/2: Table 1, mice.
Data set [4] has as its system male SD rats. The following applies: one animal per row, observed 48 hours. The protocol: In an experiment about acute toxicity of subcutaneous administration, male SD rats weighing 200-230 g were dosed in a range between 60 µg/Kg and 960 µg/Kg. Observation was made for 48 hours after subcutaneous administration. Toxic response and mortality of the rats were preliminarily observed, and time of death and doses without mortality were recorded. The level of acute toxicity of the polypeptides was preliminarily determined based on the doses without mortality.

Entries after “also recorded” stand apart in the source; their conditions may differ. Read-outs that look alike come from different tables or passages of the source. Numbered stars: 1 amine (or outer) side, 2 acyl side, 3 side chain; on linkers, the order of the positions; unused ones are H or OH. Side chains are listed from the residue outwards. Peptide text beside a SMILES is read from it. * marks the point of attachment. C18 diacid = O=C(O)CCCCCCCCCCCCCCCCC(=O)*; γGlu = O=C(O)[C@H](CCC(=O)[*:2])N[*:1]; Ethylenediamine = C(CN[*:2])N[*:1]; Stearoyl = CCCCCCCCCCCCCCCCCC(=O)*; Palmitoyl = CCCCCCCCCCCCCCCC(=O)*; Fumaroyl = O=C(O)/C=C/C(=O)*; Suc = O=C(CCC(=O)[*:2])[*:1]; Lauroyl = CCCCCCCCCCCC(=O)*; AEEA = NCCOCCOCC(=O)O

On to `CC[C@H](C)[C@H](NC(=O)[C@H](CC(=O)O)NC(=O)[C@H](CC(C)C)NC(=O)[C@H](Cc1c[nH]cn1)NC(=O)[C@H](C)NC(=O)[C@H](Cc1ccccc1)NC(=O)[C@H](Cc1ccc(O)cc1)NC(=O)[C@@H](NC(=O)[C@H](C)NC(=O)[C@H](CCC(=O)O)NC(=O)[C@H](CCC(=O)O)NC(=O)[C@H](CC(=O)O)NC(=O)CCC(=O)NCCNC(=O)COCCOCCNC(=O)COCCOCCNC(=O)CC[C@H](NC(=O)CCCCCCCCCCCCCCCCC(=O)O)C(=O)O)C(C)C)C(=O)N[C@H](C(=O)N[C@@H](Cc1c[nH]c2ccccc12)C(=O)O)[C@@H](C)CC` [BX-256] ({C18 diacid-γGlu-AEEA-AEEA-Ethylenediamine-Suc}-DEEAVYFAHLDIIW-OH), for which the “Observations of Animal Status” value in data set [1] was “Developed rapid breathing and limbs turned pale purple, and developed convulsions at 16 minutes after administration; died at 27 minutes after administration; also recorded: Developed rapid breathing, the limbs and face turned purple, and had weak limbs at 15 minutes after administration; died at 21 minutes after administration”.

The term half-life denotes how long it takes for the measured level to halve. Take `CCCCCCCCCCCCCCCCCC(=O)NCCOCCOCC(=O)NCCOCCOCC(=O)N[C@@H](CCC(=O)NCCCC[C@H](NC(=O)[C@H](Cc1c[nH]cn1)NC(=O)[C@H](C)NC(=O)[C@H](Cc1ccccc1)NC(=O)[C@H](Cc1ccc(O)cc1)NC(=O)[C@@H](NC(=O)[C@H](C)NC(=O)[C@H](CCC(=O)O)NC(=O)[C@H](CCC(=O)O)NC(=O)[C@H](CC(=O)O)NC(=O)/C=C/C(=O)O)C(C)C)C(=O)N[C@@H](CC(=O)O)C(=O)N[C@H](C(=O)N[C@H](C(=O)N[C@@H](Cc1c[nH]c2ccccc12)C(=O)O)[C@@H](C)CC)[C@@H](C)CC)C(=O)O` [BX-69] (Fumaroyl-DEEAVYFAHK([γGlu-AEEA-AEEA-Stearoyl])DIIW-OH): in data set [2], the activation at 10 µM was determined as 13.1% and the activation at 100 µM turned out to be 11.5%. In data set [3], the half-life stood at 30 min, the “AUClast 0-30 min” value came to 1611 ng·h/mL and the T1/2 entry is reported as “T1/2=30min;”.

In the case of `CCCCCCCCCCCC(=O)NCCOCCOCC(=O)NCCOCCOCC(=O)N[C@@H](CCC(=O)NCCCC[C@H](NC(=O)[C@H](Cc1c[nH]cn1)NC(=O)[C@H](C)NC(=O)[C@H](Cc1ccccc1)NC(=O)[C@H](Cc1ccc(O)cc1)NC(=O)[C@@H](NC(=O)[C@H](C)NC(=O)[C@H](CCC(=O)O)NC(=O)[C@H](CCC(=O)O)NC(=O)[C@H](CC(=O)O)NC(=O)/C=C/C(=O)O)C(C)C)C(=O)N[C@@H](CC(=O)O)C(=O)N[C@H](C(=O)N[C@H](C(=O)N[C@@H](Cc1c[nH]c2ccccc12)C(=O)O)[C@@H](C)CC)[C@@H](C)CC)C(=O)O` [BX-71] (Fumaroyl-DEEAVYFAHK([γGlu-AEEA-AEEA-Lauroyl])DIIW-OH), in data set [2], the activation at 10 µM is -9.66% and the activation at 100 µM is -9.49%. In addition, in data set [3], the half-life came to 23 min, the “AUClast 0-30 min” value was determined as 2049 ng·h/mL and the T1/2 result was “T1/2=23min;”.

Consider `CCCCCCCCCCCCCCCC(=O)NCCOCCOCC(=O)NCCOCCOCC(=O)N[C@@H](CCC(=O)NCCCC[C@H](NC(=O)[C@H](Cc1c[nH]cn1)NC(=O)[C@H](C)NC(=O)[C@H](Cc1ccccc1)NC(=O)[C@H](Cc1ccc(O)cc1)NC(=O)[C@@H](NC(=O)[C@H](C)NC(=O)[C@H](CCC(=O)O)NC(=O)[C@H](CCC(=O)O)NC(=O)[C@H](CC(=O)O)NC(=O)/C=C/C(=O)O)C(C)C)C(=O)N[C@@H](CC(=O)O)C(=O)N[C@H](C(=O)N[C@H](C(=O)N[C@@H](Cc1c[nH]c2ccccc12)C(=O)O)[C@@H](C)CC)[C@@H](C)CC)C(=O)O` [BX-70] (Fumaroyl-DEEAVYFAHK([γGlu-AEEA-AEEA-Palmitoyl])DIIW-OH), for which, in data set [2], the activation at 10 µM is -15.8% and the activation at 100 µM is 13.5%. Moreover, in data set [3], the half-life stood at 41 min, the “AUClast 0-30 min” value is 1701 ng·h/mL and the T1/2 result is “T1/2=41min;”.

Take `CC[C@H](C)[C@H](NC(=O)[C@H](CC(=O)O)NC(=O)[C@H](CCCCNC(=O)CC[C@H](NC(=O)COCCOCCNC(=O)COCCOCCNC(=O)CCCCCCCCCCCCCCCCC(=O)O)C(=O)O)NC(=O)[C@H](Cc1c[nH]cn1)NC(=O)[C@H](C)NC(=O)[C@H](Cc1ccccc1)NC(=O)[C@H](Cc1ccc(O)cc1)NC(=O)[C@@H](NC(=O)[C@H](C)NC(=O)[C@H](CCC(=O)O)NC(=O)[C@H](CCC(=O)O)NC(=O)[C@H](CC(=O)O)NC(=O)/C=C/C(=O)O)C(C)C)C(=O)N[C@H](C(=O)N[C@@H](Cc1c[nH]c2ccccc12)C(N)=O)[C@@H](C)CC` [BX-86] (Fumaroyl-DEEAVYFAHK([γGlu-AEEA-AEEA-C18 diacid])DIIW-NH2): in data set [2], the activation at 10 µM was determined as 18.3% and the activation at 100 µM came out at 10.4%. Moreover, in data set [3], the half-life was found to be 63 min and the “AUClast 0-30 min” value turned out to be 1146 ng·h/mL.

With `CCCCCCCCCCCC(=O)N[C@@H](CCC(=O)O)C(=O)NCCOCCOCC(=O)NCCCC[C@H](NC(=O)[C@H](Cc1c[nH]cn1)NC(=O)[C@H](C)NC(=O)[C@H](Cc1ccccc1)NC(=O)[C@H](Cc1ccc(O)cc1)NC(=O)[C@@H](NC(=O)[C@H](C)NC(=O)[C@H](CCC(=O)O)NC(=O)[C@H](CCC(=O)O)NC(=O)[C@H](CC(=O)O)NC(=O)/C=C/C(=O)O)C(C)C)C(=O)N[C@@H](CC(=O)O)C(=O)N[C@H](C(=O)N[C@H](C(=O)N[C@@H](Cc1c[nH]c2ccccc12)C(=O)O)[C@@H](C)CC)C(C)C` [BX238-Na] (Fumaroyl-DEEAVYFAHK([AEEA-Glu-Lauroyl])DVIW-OH), the “Observations of Animal Status” value was “No obvious abnormal reaction observed within 48 hours” in data set [4] (subcutaneous 240 µg/Kg); “No obvious abnormal reaction observed within 48 hours” in data set [4] (subcutaneous 360 µg/Kg); “Developed rapid breathing at 50 minutes after administration, showed no willingness to move, recovered 2 hours after administration; also recorded: Developed rapid breathing at 21 minutes after administration, died at 26 minutes after administration; also recorded: Developed rapid breathing at 10 minutes after administration, died at 47 minutes after administration; also recorded: Developed rapid breathing at 45 minutes after administration, showed no willingness to move, recovered 2 hours after administration; also recorded: Developed rapid breathing at 20 minutes after administration, died at 55 minutes after administration” in data set [4] (subcutaneous 480 µg/Kg).
